Assay results taken from US20130137865A1 (TAISHO PHARMACEUTICAL CO., LTD., priority 2010, published 2013).

Molecular target: T1, rat mGlu2 receptor (Rattus norvegicus, UniProt P31421)
T1 construct: expressed in transfected cells; host or cells: CHO cells
Test: [35S]GTPγS binding test (1), membranes of CHO cells stably expressing rat mGlu2
Format: biochemical
Conditions: inhibition of glutamic acid (20 μM)-stimulated specific [35S]GTPγS binding
Description: (Preparation of Crude Membrane Fraction of CHO Cells Stably Expressing the Rat Metabotropic Glutamate Receptor (mGlu2))
(§1) CHO cells stably expressing the rat mGlu2 receptor were cultured in a 10% dialyzed fetal bovine serum-containing Dulbecco's Modified Eagle's Medium [1% proline, 50 units/mL penicillin, 50 μg/mL streptomycin, and 2 mM L-glutamine (to be added when used)] at 37° C. in 5% CO2. Confluent cells were washed with PBS(−) twice, and were then harvested with a cell scraper. Then, the cells were centrifuged at 4° C. at 1000 rpm for 5 minutes to collect. The obtained precipitate was suspended in a 20 mM HEPES buffer (pH 7.4), and then homogenized with a Teflon® homogenizer. The resultant was centrifuged at 4° C. at 48,000×g for 20 minutes to obtain a precipitate again. The obtained precipitate was washed twice by centrifugation, and was then homogenized with the above-mentioned buffer, so as to obtain a crude membrane fraction. The obtained crude membrane fraction was preserved at −80° C.
(§2) The frozen membrane fraction as prepared above was thawed when used, and it was then diluted with a binding test buffer (final concentration: 20 mM HEPES, 100 mM NaCl, 10 mM MgCl2, 8.4 μM GDP, 10 μg/mL saponin, and 0.1% BSA). The compound of the Example was added to a membrane fraction (10 μg protein/assay), and the obtained mixture was then incubated at 30° C. for 20 minutes. Thereafter, glutamic acid (final concentration: 20 μM) and [^35S]GTPγS (final concentration: 0.15 nM) were added to the reaction mixture, and then incubated at 30° C. for 1 hour. After completion of the incubation, the reaction mixture was subjected to filtration over a Whatman GF/C filter that had previously been immersed in a 20 mM HEPES buffer (pH 7.4), and the filter was then washed three times with 300 μL of ice-cold 20 mM HEPES buffer (pH 7.4). A scintillation cocktail was added to the resulting filter, and membrane-bound radioactivity was then measured with a liquid scintillation counter.
(§3) The amount of [^35S]GTPγS bound in the case of carrying out the above described reaction in the absence of glutamic acid was defined as non-specific binding. The difference between such non-specific bound and the amount of [^35S]GTPγS bound in the presence of glutamic acid was defined as specific binding. Using non-linear analysis, a concentration-inhibition curve was produced. The concentration of the compound of each Example that caused 50% inhibition (IC50 value) of specific binding was determined from each concentration-inhibition curve.

T1 sequence (P31421 19-872): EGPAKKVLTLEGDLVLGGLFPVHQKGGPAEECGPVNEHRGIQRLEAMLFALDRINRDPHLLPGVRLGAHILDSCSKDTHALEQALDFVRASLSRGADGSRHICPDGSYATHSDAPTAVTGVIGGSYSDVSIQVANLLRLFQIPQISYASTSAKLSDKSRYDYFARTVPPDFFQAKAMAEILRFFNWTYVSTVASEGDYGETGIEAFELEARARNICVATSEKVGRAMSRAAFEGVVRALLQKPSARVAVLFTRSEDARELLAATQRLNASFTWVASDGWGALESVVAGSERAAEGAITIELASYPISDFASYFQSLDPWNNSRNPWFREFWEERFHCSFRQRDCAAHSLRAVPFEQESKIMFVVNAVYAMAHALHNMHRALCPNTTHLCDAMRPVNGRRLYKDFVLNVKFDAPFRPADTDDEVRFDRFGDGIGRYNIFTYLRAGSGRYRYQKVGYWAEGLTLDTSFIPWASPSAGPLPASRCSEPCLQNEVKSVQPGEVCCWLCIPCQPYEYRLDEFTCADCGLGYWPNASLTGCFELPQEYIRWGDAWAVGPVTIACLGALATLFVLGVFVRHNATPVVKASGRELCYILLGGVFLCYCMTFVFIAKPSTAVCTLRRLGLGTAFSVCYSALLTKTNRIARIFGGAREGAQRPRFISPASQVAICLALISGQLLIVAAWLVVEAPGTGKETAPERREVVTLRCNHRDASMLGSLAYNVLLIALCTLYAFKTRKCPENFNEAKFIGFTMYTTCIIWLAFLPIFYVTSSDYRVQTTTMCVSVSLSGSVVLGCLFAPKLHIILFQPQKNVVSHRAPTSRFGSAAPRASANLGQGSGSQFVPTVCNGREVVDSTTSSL

IC50 | SMILES
3.56 nM | Cn1ncc(-c2nc(-c3cccc(S(N)(=O)=O)c3)no2)c1COc1cccc(OC(F)(F)F)c1 [Example 69, 3-[5-(1-Methyl-5-{[3-(trifluoromethoxy)phenoxy]methyl}-1H-pyrazol-4-yl)-1,2,4-oxadiazol-3-yl]benzenesulfonamide]
25.1 nM | Cn1ncc(-c2nc(-c3cccc(S(=O)(=O)O)c3)no2)c1COc1ccc(C(F)(F)F)cc1 [Example 134, 3-[5-(1-Methyl-5-{[4-(trifluoromethyl)phenoxy]methyl}-1H-pyrazol-4-yl)-1,2,4-oxadiazol-3-yl]benzenesulfonic acid]
8.69 nM | Cn1ncc(-c2nc(-c3ccc(S(N)(=O)=O)cc3)no2)c1CCc1ccc(C(F)(F)F)cc1 [Example 19, 4-[5-(1-Methyl-5-{2-[4-(trifluoromethyl)phenyl]ethyl}-1H-pyrazol-4-yl)-1,2,4-oxadiazol-3-yl]benzenesulfonamide]

Molecular target: T2, human mGlu2 receptor (Homo sapiens, UniProt Q14416)
T2 construct: expressed in transfected cells; host or cells: CHO cells
T2 sequence (Q14416 19-872): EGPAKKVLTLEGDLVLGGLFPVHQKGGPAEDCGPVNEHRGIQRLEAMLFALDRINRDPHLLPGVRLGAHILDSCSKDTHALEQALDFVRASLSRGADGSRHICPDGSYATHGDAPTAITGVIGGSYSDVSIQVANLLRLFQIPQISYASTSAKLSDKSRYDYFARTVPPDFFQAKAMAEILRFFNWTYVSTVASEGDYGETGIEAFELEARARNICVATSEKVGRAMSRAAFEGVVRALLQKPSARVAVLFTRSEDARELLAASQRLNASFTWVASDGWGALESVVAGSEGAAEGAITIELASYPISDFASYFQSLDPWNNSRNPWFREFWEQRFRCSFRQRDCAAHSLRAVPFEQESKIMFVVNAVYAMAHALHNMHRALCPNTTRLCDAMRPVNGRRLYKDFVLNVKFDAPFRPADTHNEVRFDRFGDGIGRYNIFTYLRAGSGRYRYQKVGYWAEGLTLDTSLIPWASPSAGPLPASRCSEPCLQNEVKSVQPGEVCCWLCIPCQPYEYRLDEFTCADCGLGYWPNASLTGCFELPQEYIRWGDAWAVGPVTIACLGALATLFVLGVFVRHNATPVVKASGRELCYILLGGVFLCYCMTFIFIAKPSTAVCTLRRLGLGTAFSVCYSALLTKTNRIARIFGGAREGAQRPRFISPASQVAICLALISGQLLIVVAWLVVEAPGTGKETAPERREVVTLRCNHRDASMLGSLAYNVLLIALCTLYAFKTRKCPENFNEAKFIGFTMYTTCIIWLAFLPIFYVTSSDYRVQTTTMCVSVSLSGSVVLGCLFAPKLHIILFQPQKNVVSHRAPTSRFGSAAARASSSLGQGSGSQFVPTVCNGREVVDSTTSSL
Test: [35S]GTPγS binding test (2), membranes of CHO cells stably expressing human mGlu2
Format: biochemical
Conditions: inhibition of glutamic acid (20 μM)-stimulated specific [35S]GTPγS binding
Description: (Preparation of Crude Membrane Fraction of CHO Cells Stably Expressing the Human Metabotropic Glutamate Receptor (mGlu2))
as §1, with “human” for “rat”, “streptomycin, 400 μg/mL hygromycin B,” for “streptomycin,”
as §2, §3

IC50 | SMILES
3.85 nM | Cn1ncc(-c2coc(-c3cccc(S(N)(=O)=O)c3)n2)c1COc1ccc(C(F)(F)F)cc1 [Example 203, 3-[4-(1-Methyl-5-{[4-(trifluoromethyl)phenoxy]methyl}-1H-pyrazol-4-yl)-1,3-oxazol-2-yl]benzenesulfonamide]
67.2 nM | Cn1ncc(-c2nnc(-c3ccc(S(N)(=O)=O)cc3)o2)c1COc1ccc(C(F)(F)F)cc1 [Example 190, 4-[5-(1-Methyl-5-{[4-(trifluoromethyl)phenoxy]methyl}-1H-pyrazol-4-yl)-1,3,4-oxadiazol-2-yl]benzenesulfonamide]
29.1 nM | CC(=O)Nc1cc(-c2noc(-c3cnn(C)c3COc3ccc(C(F)(F)F)cc3)n2)ccn1 [Example 208, N-{4-[5-(1-methyl-5-{[4-(trifluoromethyl)phenoxy]methyl}-1H-pyrazol-4-yl)-1,2,4-oxadiazol-3-yl]pyridin-2-yl}acetamide]
14.9 nM | CC(=O)Nc1cc(-c2noc(-c3cnn(C)c3COc3ccc(C(F)(F)F)cn3)n2)ccn1 [Example 217, N-(4-{5-[1-Methyl-5-({[5-(trifluoromethyl)pyridin-2-yl]oxy}methyl)-1H-pyrazol-4-yl]-1,2,4-oxadiazol-3-yl}pyridin-2-yl)acetamide]
4.32 nM | Cn1ncc(-c2nc(-c3cccc(S(C)(=O)=O)c3)no2)c1COc1ccc(C(F)(F)F)cn1 [Example 216, 2-[(1-Methyl-4-{3-[3-(methylsulfonyl)phenyl]-1,2,4-oxadiazol-5-yl}-1H-pyrazol-5-yl)methoxy]-5-(trifluoromethyl)pyridine]
13.2 nM | CNS(=O)(=O)c1cccc(-c2noc(-c3cnn(C)c3COc3ccccn3)n2)c1 [Example 146, N-Methyl-3-(5-{1-methyl-5-[(pyridin-2-yloxy)methyl]-1H-pyrazol-4-yl}-1,2,4-oxadiazol-3-yl)benzenesulfonamide]
49.1 nM | Cn1ncc(-c2nc(-c3ccc(S(C)(=O)=O)cc3)no2)c1COc1ccc(C(F)(F)F)cn1 [Example 215, 2-[(1-Methyl-4-{3-[4-(methylsulfonyl)phenyl]-1,2,4-oxadiazol-5-yl}-1H-pyrazol-5-yl)methoxy]-5-(trifluoromethyl)pyridine]
80.6 nM | Cn1nc(-c2cccc(S(N)(=O)=O)c2)nc1-c1cnn(C)c1COc1ccc(C(F)(F)F)cc1 [Example 233, 3-[1-Methyl-5-(1-methyl-5-{[4-(trifluoromethyl)phenoxy]methyl}-1H-pyrazol-4-yl)-1H-1,2,4-triazol-3-yl]benzenesulfonamide]
32.2 nM | Cn1ncc(-c2nc(-c3cccc(N)c3)no2)c1COc1ccc(C(F)(F)F)cn1 [Example 220, 3-{5-[1-Methyl-5-({[5-(trifluoromethyl)pyridin-2-yl]oxy}methyl)-1H-pyrazol-4-yl]-1,2,4-oxadiazol-3-yl}aniline]
21.5 nM | Cn1ncc(-c2nnc(-c3cccc(S(N)(=O)=O)c3)o2)c1COc1ccc(C(F)(F)F)cn1 [Example 187, 3-{5-[1-Methyl-5-({[5-(trifluoromethyl)pyridin-2-yl]oxy}methyl)-1H-pyrazol-4-yl]-1,3,4-oxadiazol-2-yl}benzenesulfonamide]
33.2 nM | CNCCNS(=O)(=O)c1cccc(-c2noc(-c3cnn(C)c3COc3ccc(F)cn3)n2)c1 [Example 232, 3-[5-(5-{[(5-Fluoropyridin-2-yl)oxy]methyl}-1-methyl-1H-pyrazol-4-yl)-1,2,4-oxadiazol-3-yl]-N-[2-(methylamino)ethyl]benzenesulfonamide]
36.7 nM | Cn1ncc(-c2nc(-c3cccc(S(N)(=O)=O)c3)no2)c1COc1ccccn1 [Example 75, 3-(5-{1-Methyl-5-[(pyridin-2-yloxy)methyl]-1H-pyrazol-4-yl}-1,2,4-oxadiazole-3-yl)benzenesulfonamide]
13.6 nM | CN(C)CCNS(=O)(=O)c1cccc(-c2noc(-c3cnn(C)c3COc3ccc(F)cn3)n2)c1 [Example 85, N-[2-(Dimethylamino)ethyl]-3-[5-(5-{[(5-fluoropyridin-2-yl)oxy]methyl}-1-methyl-1H-pyrazol-4-yl)-1,2,4-oxadiazol-3-yl]benzenesulfonamide]
17.1 nM | Cn1ncc(-c2nc(-c3cncc(S(C)(=O)=O)c3)no2)c1COc1ccc(C(F)(F)F)cn1 [Example 223, 2-[(1-Methyl-4-{3-[5-(methylsulfonyl)pyridin-3-yl]-1,2,4-oxadiazol-5-yl}-1H-pyrazol-5-yl)methoxy]-5-(trifluoromethyl)pyridine]
3.64 nM | Cn1ncc(-c2nc(-c3cncc(S(N)(=O)=O)c3)no2)c1COc1ccc(C(F)(F)F)cn1 [Example 224, 5-{5-[1-Methyl-5-({[5-(trifluoromethyl)pyridin-2-yl]oxy}methyl)-1H-pyrazol-4-yl]-1,2,4-oxadiazol-3-yl}pyridine-3-sulfonamide]
50.8 nM | Cn1ncc(-c2cc(-c3cccc(S(N)(=O)=O)c3)on2)c1COc1ccc(F)cn1 [Example 204, 3-[3-(5-{[(5-Fluoropyridin-2-yl)oxy]methyl}-1-methyl-1H-pyrazol-4-yl)-1,2-oxazol-5-yl]benzenesulfonamide]
28.6 nM | Cn1ncc(-c2nc(-c3ccc(N)nc3)no2)c1COc1ccc(C(F)(F)F)cc1 [Example 92, 5-[5-(1-Methyl-5-{[4-(trifluoromethyl)phenoxy]methyl}-1H-pyrazol-4-yl)-1,2,4-oxadiazol-3-yl]pyridine-2-amine]
68 nM | Cn1ncc(-c2nc(-c3cnc(N)nc3)no2)c1COc1ccc(C(F)(F)F)cn1 [Example 218, 5-{5-[1-Methyl-5-({[5-(trifluoromethyl)pyridin-2-yl]oxy}methyl)-1H-pyrazol-4-yl]-1,2,4-oxadiazol-3-yl}pyrimidine-2-amine]
26.4 nM | Cn1ncc(-c2nc(-c3cccc(S(N)(=O)=O)c3)no2)c1COc1ncc(F)cc1Br [Example 214, 3-[5-(5-{[(3-Bromo-5-fluoropyridin-2-yl)oxy]methyl}-1-methyl-1H-pyrazol-4-yl)-1,2,4-oxadiazol-3-yl]benzenesulfonamide]
1.33 nM | Cn1ncc(-c2nc(-c3cccc(S(N)(=O)=O)c3)no2)c1COc1ccc(C(F)(F)F)cn1 [Example 122, 3-{5-[1-Methyl-5-({[5-(trifluoromethyl)pyridin-2-yl]oxy}methyl)-1H-pyrazol-4-yl]-1,2,4-oxadiazol-3-yl}benzenesulfonamide]
10.3 nM | Cn1ncc(-c2nc(-c3cccc(S(N)(=O)=O)c3)no2)c1COc1ccc(F)cn1 [Example 72, 3-[5-(5-{[(5-Fluoropyridin-2-yl)oxy]methyl}-1-methyl-1H-pyrazol-4-yl)-1,2,4-oxadiazol-3-yl]benzenesulfonamide]
56.9 nM | Cn1ncc(-c2nc(-c3cc[nH]c(=O)c3)no2)c1COc1ccc(C(F)(F)F)cn1 [Example 228, 4-{5-[1-Methyl-5-({[5-(trifluoromethyl)pyridin-2-yl]oxy}methyl)-1H-pyrazol-4-yl]-1,2,4-oxadiazol-3-yl}pyridine-2(1H)-one]
